pIC50: −log10 of the molar value.

This test deals with MGC-803. The test is described as follows: Antiproliferative activity against human MGC-803 cells assessed as inhibition of cell growth incubated for 24 to 72 hrs by MTT assay. Type of test: functional, cell-based.
For `C=C1CC[C@@H]2[C@](C)(CO)[C@H](O)CC[C@@]2(C)[C@@H]1/C=C/C(=C/C(=O)Cc1ccc(Cl)cc1)C(=O)N1CCNCC1`, the pIC50 was 4.42. Consider `C=C1CC[C@@H]2[C@](C)(CO)[C@H](O)CC[C@@]2(C)[C@@H]1/C=C/C1=CC(=C/c2cccc(C)c2)/NC1=O`, for which the pIC50 is 5.34. On to `C=C1CC[C@@H]2[C@](C)(CO)[C@H](O)CC[C@@]2(C)[C@@H]1/C=C/C1=CC(=C/c2ccccc2Cl)/NC1=O`, for which the pIC50 was 5.80. To `C=C1CC[C@@H]2[C@](C)(CO)[C@H](O)CC[C@@]2(C)[C@@H]1/C=C/C1=CC(=C(C)C)NC1=O` belongs less than 4.30; to `C=C1CC[C@@H]2[C@](C)(CO)[C@H](O)CC[C@@]2(C)[C@@H]1/C=C/C(=C/C(=O)Cc1ccc(Cl)cc1)C(=O)N1CCN(C)CC1`, less than 4.30; to `C=C1CC[C@@H]2[C@](C)(CO)[C@H](O)CC[C@@]2(C)[C@@H]1/C=C/C(=C/C(=O)Cc1ccc(Cl)cc1)C(=O)N1CCN(C(=O)OC(C)(C)C)CC1`, 4.80. `C=C1CC[C@@H]2[C@](C)(CO)[C@H](O)CC[C@@]2(C)[C@@H]1/C=C/C(=C/C(=O)Cc1ccc(Cl)cc1)C(=O)N1CCOCC1`: the pIC50 is less than 4.30. On to `C=C1CC[C@@H]2[C@](C)(CO)[C@H](O)CC[C@@]2(C)[C@@H]1/C=C/C1=CC(=C/c2ccc(Cl)cc2Cl)/NC1=O`, for which the negative logarithm of the IC50 (pIC50) was 5.07.

As for `C=C1CC[C@@H]2[C@](C)(CO)[C@H](O)CC[C@@]2(C)[C@@H]1/C=C/C1=CC(=C/C2CCCCC2)/NC1=O`, the pIC50 was 4.80. `C=C1CC[C@@H]2[C@](C)(CO)[C@H](O)CC[C@@]2(C)[C@@H]1/C=C/C1=CC(=C/c2ccccc2C)/NC1=O`: the pIC50 was 5.75. On to `C=C1CC[C@@H]2[C@](C)(CO)[C@H](O)CC[C@@]2(C)[C@@H]1/C=C/C1=CC(=C/c2cccc(Cl)c2)/NC1=O`, for which the pIC50 was less than 4.30. For `C=C1CC[C@@H]2[C@](C)(CO)[C@H](O)CC[C@@]2(C)[C@@H]1/C=C/C1=CC(=C/c2ccc(F)c(F)c2)/NC1=O`, the negative logarithm of the IC50 (pIC50) is less than 4.30. As for `C=C1CC[C@@H]2[C@](C)(CO)[C@H](O)CC[C@@]2(C)[C@@H]1/C=C/C1=CC(=C\c2ccc(C)cc2)/NC1=O`, the pIC50 is 4.83. To `C=C1CC[C@@H]2[C@](C)(CO)[C@H](O)CC[C@@]2(C)[C@@H]1/C=C/C1=CC(=C/c2ccc(C(C)(C)C)cc2)/NC1=O` belongs 4.71; to `C=C1CC[C@@H]2[C@](C)(CO)[C@H](O)CC[C@@]2(C)[C@@H]1/C=C/C1=CC(=C/c2ccc([N+](=O)[O-])c(Cl)c2)/NC1=O`, less than 4.30. With `C=C1CC[C@@H]2[C@](C)(CO)[C@H](O)CC[C@@]2(C)[C@@H]1/C=C/C1=CC(=C/c2cccc3ccccc23)/NC1=O`, the pIC50 is 5.87. `C=C1CC[C@@H]2[C@](C)(CO)[C@H](O)CC[C@@]2(C)[C@@H]1/C=C/C1=CC(=C\c2ccccc2)/NC1=O`: the pIC50 is 4.75. To `C=C1CC[C@@H]2[C@](C)(CO)[C@H](O)CC[C@@]2(C)[C@@H]1/C=C/C1=CC(=C2CCCCC2)NC1=O` belongs less than 4.30.

With `C=C1CC[C@@H]2[C@](C)(CO)[C@H](O)CC[C@@]2(C)[C@@H]1/C=C/C(=C/C(=O)Cc1ccc(Cl)cc1)C(=O)N1CCN(CC)CC1`, the pIC50 is less than 4.30.

`C=C1CC[C@@H]2[C@](C)(CO)[C@H](O)CC[C@@]2(C)[C@@H]1/C=C/C1=CC(=C/c2ccc(Br)cc2)/NC1=O`: the pIC50 was 5.28. In the case of `C=C1CC[C@@H]2[C@](C)(CO)[C@H](O)CC[C@@]2(C)[C@@H]1/C=C/C1=CC(=C/c2ccc(Cl)cc2)/NC1=O`, the pIC50 is 5.22. As for `C=C1CC[C@@H]2[C@](C)(CO)[C@H](O)CC[C@@]2(C)[C@@H]1/C=C/C(=C/C(=O)Cc1ccc(Cl)cc1)C(=O)N1CCN(CCO)CC1`, the pIC50 is less than 4.30. With `C=C1CC[C@@H]2[C@](C)(CO)[C@H](O)CC[C@@]2(C)[C@@H]1/C=C/C1=CC(=C/c2ccc(N(C)C)cc2)/NC1=O`, the pIC50 was 4.74. In the case of `C=C1CC[C@@H]2[C@](C)(CO)[C@H](O)CC[C@@]2(C)[C@@H]1/C=C/C1=CC(=C/c2cccnc2)/NC1=O`, the pIC50 is 4.91.

Regarding `C=C1CC[C@@H]2[C@](C)(CO)[C@H](O)CC[C@@]2(C)[C@@H]1/C=C/C1=CC(=C/c2ccc3ccccc3c2)/NC1=O`, the negative logarithm of the IC50 (pIC50) is 5.61. For `C=C1CC[C@@H]2[C@](C)(CO)[C@H](O)CC[C@@]2(C)[C@@H]1/C=C/C1=CC(=C/c2ccccc2)/NC1=O`, the pIC50 was 5.02.

As to `C=C1CC[C@@H]2[C@](C)(CO)[C@H](O)CC[C@@]2(C)[C@@H]1/C=C/C(=C/C(=O)Cc1ccc(Cl)cc1)C(=O)N1CCCC1`, the pIC50 was less than 4.30.

`C=C1CC[C@@H]2[C@](C)(CO)[C@H](O)CC[C@@]2(C)[C@@H]1C/C=C1/C(=O)OC[C@H]1O` [ANDROGRAPHOLIDE]: the pIC50 is 4.50. Regarding `C=C1CC[C@@H]2[C@](C)(CO)[C@H](O)CC[C@@]2(C)[C@@H]1/C=C/C1=CC(=C\c2ccc(Cl)cc2)/NC1=O`, the pIC50 was 4.72. In the case of `C=C1CC[C@@H]2[C@](C)(CO)[C@H](O)CC[C@@]2(C)[C@@H]1/C=C/C(=C/C(=O)Cc1ccc(Cl)cc1)C(=O)N1CCCCC1`, the pIC50 is less than 4.30.

As for `C=C1CC[C@@H]2[C@](C)(CO)[C@H](O)CC[C@@]2(C)[C@@H]1/C=C/C1=CC(=C/c2ccc(F)cc2)/NC1=O`, the pIC50 was less than 4.30. Consider `C=C1CC[C@@H]2[C@](C)(CO)[C@H](O)CC[C@@]2(C)[C@@H]1/C=C/C1=CC(=C/c2cccc(C)c2C)/NC1=O`, for which the pIC50 is 4.85. Turning to `C=C1CC[C@@H]2[C@](C)(CO)[C@H](O)CC[C@@]2(C)[C@@H]1/C=C/C1=CC(=C/c2cc(OC)c(OC)c(OC)c2)/NC1=O`, the pIC50 was 5.14. Regarding `C=C1CC[C@@H]2[C@](C)(CO)[C@H](O)CC[C@@]2(C)[C@@H]1/C=C/C(=C/C(=O)Cc1ccc(Cl)cc1)C(=O)N(C)C`, the pIC50 was less than 4.30.

For the origin of these results see ChEMBL document CHEMBL6153084, “The development of α, β-unsaturated lactam-based andrographolide derivatives as anti-gastric cancer agents with the ability of inhibiting the ERK/c-Fos/Jun pathway” (Eur J Med Chem, 2025).
